{"source": "paper PMC9138090", "about": "“Study on the Neuroprotective, Radical-Scavenging and MAO-B Inhibiting Properties of New Benzimidazole Arylhydrazones as Potential Multi-Target Drugs for the Treatment of Parkinson’s Disease” (Antioxidants, 2022)", "key": {"rat brain synaptosomes [1]": {"tested_on": "rat brain synaptosomes", "assay": "6-OHDA-induced neurotoxicity, synaptosomal viability", "type": "cell-based", "conditions": "for protective effect in 6-OHDA model (in words): 10 µM, synaptosomal viability and GSH level", "experimental": "(§1) Synaptosomes were prepared from brains of adult male Wistar rats. The brains were homogenized in 10 volume of cold buffer 1, containing 5 mM HEPES and 0.32 M sucrose (pH = 7.4). The brain homogenate was centrifuged twice at 1000× g for 5 min at 4 °C. The supernatant was collected and centrifuged 3 times at 10,000× g for 20 min at 4 °C. The pellet was re-suspended in ice-cold buffer 1. The synaptosomes were isolated by using Percoll reagent to prepare the gradient. Synaptosomes were re-suspended and incubated in buffer 2, containing 290 mM NaCl, 0.95 mM MgCl2 × 6H2O, 10 mM KCl, 2.4 mM CaCl2 × H2O, 2.1 mM NaH2PO4, 44 mM HEPES, and 13 mM D-glucose. Incubations were performed in a 5% CO2 + 95% O2 atmosphere. The content of synaptosomal protein was determined according to the method of Lowry et al. using bovine serum albumin as a standard.\n(§2) Synaptosomal viability was measured by (3-(4,5)-dimethylthiazol-2-yl)-2,5-diphenyl tetrazolium bromide)-test, described by Mungarro-Menchaca et al. The synaptosomes were incubated with the compounds and then treated with (3-(4,5)-dimethylthiazol-2-yl)-2,5-diphenyl tetrazolium bromide) solution (0.5 mg/mL) for 1 h at 37 °C. After incubation they were centrifuged at 15,000× g for 1 min. The formed formazan crystals were dissolved in DMSO (Dimethyl sulfoxide). The extinction was measured spectrophotometrically at λ = 580 nm.\nThe metabolism and oxidation of dopamine cause reactive oxygen radicals and reactive quinones to be produced, which could lead to neurotoxicity and neurodegeneration. The synaptosomes were incubated with the compounds (10 µM) for 30 min and then 6-hydroxydopamnine (150 mmol/L) was used to induce neurotoxicity. […] After 1 h, they were centrifuged on a microcentrifuge for 1 min at 15,000 rpm. The precipitates were gently mixed with buffer B and glucose and centrifuged for a second time at 15,000 rpm for 1 min. After the second wash, buffer B and glucose were added to the precipitates.\nIn the presented experiments, an in vitro assessment of the possible antioxidant and neuroprotective effects of the newly synthetized compounds was performed in a model of 6-OHDA induced toxicity in rat brain synaptosomes. 6-OHDA is a neurotoxicant that structurally resembles dopamine and can be used in different in vivo and in vitro models for neurotoxicity. This model resembles the histological, biochemical, and physiological characteristics of neurodegenerative diseases such as Parkinson’s and Alzheimer’s disease. […] However, their uptake into brain synaptosomes is similar among primates and rodents and they are suitable in vitro models for PD. The main mechanism of 6-OHDA toxicity includes induction of oxidative stress. It undergoes auto-oxidation or metabolic degradation to p-quinone and produces hydrogen peroxide, superoxide, and hydroxyl radicals. The process causes lipid peroxidation, protein oxidation, and DNA oxidation and finally results in oxidative stress and mitochondrial dysfunction. Rat brain synaptosomes were pretreated with compounds 3e, 3h, 3i, 3m, melatonin, and rasagiline (10 μM); after that, the samples were subjected to 6-OHDA (150 mmol/L, 1 h). The protective effects were evaluated by measurement of synaptosomal viability (MTT-test) and GSH levels (Figure 3)."}, "[2]": {"assay": "Superoxide scavenging, xanthine/xanthine oxidase NBT assay", "type": "biochemical", "conditions": "for change in sample absorbance vs. controls (in words): whole tested concentration range", "experimental": "Superoxide radicals scavenging activity (enzymatic assay): The assay comprises the preparation of 1 mL PBS samples containing the following substances: 1 mmol/l xanthine; 20 µL xanthine oxidase (100 IU/L); 0.04 mmol/L NBT; either the tested hydrazone or buffer for the controls. The samples were incubated at 37 °C and the absorbance was measured at 560 nm.\nThe results from both assays have been presented as a percentage of the control sample.\nThe potency of the compounds selected as the most promising from the cell model systems and hMAOB inhibitory studies was estimated against enzymatically (xanthine/XO system) and non-enzymatically (KO2/NBT) produced superoxide radicals (Figure 7). In the xanthine-xanthine oxidase system the generation of O2^−^● is a result of an enzymatic reaction. The molecular mechanism of action of the XO enzyme is associated with catalysation of the reaction of oxidation of hypoxanthine and xanthine and generation of uric acid. During the process of reoxidation of the enzyme, the molecular oxygen acts as an electron acceptor and the formation of physiologically important ROS, such as the superoxide radical (O2^−^●) and hydrogen peroxide (H2O2), has been observed. In the potassium superoxide-containing systems, superoxide radical generation is due to the direct addition of the KO2 to the water sample solution. The release of a superoxide anion was estimated via NBT reduction activity, indicating detectable superoxide anion levels. The application of these two alternative model systems will afford the possibility to perform a more accurate interpretation of the obtained results. Since in the enzyme-free model system, the release of the superoxide in the small sample volume is a very fast process, there is a risk of local effects that is avoided in the xanthine-xanthine oxidase system. The use of enzyme reaction provides a relatively slow generation of the superoxide radical and steady concentration."}, "rat brain synaptosomes [3]": {"tested_on": "rat brain synaptosomes", "assay": "Synaptosomal viability (MTT), toxicity evaluation", "type": "cell-based", "conditions": "concentrations < 250 µM (1 to 250 µM tested)", "experimental": "as §1, §2\nThe low toxicity and substantial neuroprotective properties shown by some of the potential drug candidates in human neuroblastoma SH-SY5Y cells directed the experimental work to be elaborated on a different cellular in vitro model using freshly isolated rat brain synaptosomes for the evaluation of the protective effects and toxicity of selected promising compounds [56]. The rat brain synaptosomes represent a terminal part of the axons and contain synaptic vesicles, mitochondria, lysosomes, parts of the cell membrane, neurotransmitters, which diffuse across the synaptic cleft. Besides the presynaptic membrane, a part of postsynaptic membrane with the postsynaptic density is often attached to the nerve ending. In their experiments, Student and Edwards examined the subcellular localization of the A and B forms of MAO in rat brain. […] The authors conclude from the data that MAO-B activity is, indeed, associated with synaptosomes and may be non-uniformly located among different populations of synaptic endings. The functional-metabolic status of the synaptosomes was evaluated by measuring the synaptosomal viability (MTT assay) and the levels of reduced gluthathione (GSH) (Figure 2). […] At the highest used concentration (250 µM) a relative decrease in the synaptosomal viability and the levels of reduced glutathione was observed."}}}
{"smiles": "O=C(CCn1c(=S)n(CCC(=O)NN=Cc2ccccc2O)c2ccccc21)NN=Cc1ccccc1O", "note": "[3e, 3,3′-(2-Thioxo-1H-benzo[d]imidazole-1,3(2H)-diyl)bis(N′-(2-hydroxybenzylidene)propanehydrazide)]", "values": [{"measurement": "protective effect in 6-OHDA model (in words)", "setting": "rat brain synaptosomes [1]", "result": "less pronounced protective effects"}, {"measurement": "melting point", "result": "272 to 273", "unit": "°C"}, {"measurement": "change in sample absorbance vs. controls (in words)", "setting": "[2]", "result": "did not induce statistically significant change"}, {"measurement": "effect on rat brain synaptosomes viability", "setting": "rat brain synaptosomes [3]", "result": "did not significantly reduce"}]}
{"smiles": "O=C(CCn1c(=S)n(CCC(=O)NN=Cc2cccc(O)c2O)c2ccccc21)NN=Cc1cccc(O)c1O", "note": "[3h, 3,3′-(2-Thioxo-1H-benzo[d]imidazole-1,3(2H)-diyl)bis(N′-(2,3-dihydroxybenzylidene)propanehydrazide)]", "values": [{"measurement": "increase of synaptosomal viability vs. 6-OHDA treatment", "setting": "rat brain synaptosomes [1]; 10 µM pretreatment, 6-OHDA 1 h", "result": 71, "unit": "%"}, {"measurement": "melting point", "result": "246 to 248", "unit": "°C"}, {"measurement": "% of the control ratio, NBT reduction", "setting": "[2]; maximal tested concentration", "result": 64, "unit": "%"}, {"measurement": "effect on rat brain synaptosomes viability", "setting": "rat brain synaptosomes [3]", "result": "did not significantly reduce"}]}
{"smiles": "O=C(CCn1c(=S)n(CCC(=O)NN=Cc2ccc(O)cc2O)c2ccccc21)NN=Cc1ccc(O)cc1O", "note": "[3i, 3,3′-(2-Thioxo-1H-benzo[d]imidazole-1,3(2H)-diyl)bis(N′-(2,4-dihydroxybenzylidene)propanehydrazide)]", "values": [{"measurement": "protective effect in 6-OHDA model (in words)", "setting": "rat brain synaptosomes [1]", "result": "less pronounced protective effects"}, {"measurement": "melting point", "result": "254 to 256", "unit": "°C"}, {"measurement": "decrease of NBT reduction", "setting": "[2]; xanthine/xanthine oxidase assay", "result": 15, "unit": "%"}, {"measurement": "effect on rat brain synaptosomes viability", "setting": "rat brain synaptosomes [3]", "result": "did not significantly reduce"}]}
{"smiles": "COc1ccc(C=NNC(=O)CCn2c(=S)n(CCC(=O)NN=Cc3ccc(OC)cc3O)c3ccccc32)c(O)c1", "note": "[3m, 3,3′-(2-Thioxo-1H-benzo[d]imidazole-1,3(2H)-diyl)bis(N′-(2-hydroxy-4-methoxybenzylidene)propanehydrazide)]", "values": [{"measurement": "protective effect in 6-OHDA model (in words)", "setting": "rat brain synaptosomes [1]", "result": "less pronounced protective effects"}, {"measurement": "melting point", "result": "247 to 249", "unit": "°C"}, {"measurement": "change in sample absorbance vs. controls (in words)", "setting": "[2]", "result": "did not induce statistically significant change"}, {"measurement": "effect on rat brain synaptosomes viability", "setting": "rat brain synaptosomes [3]", "result": "did not significantly reduce"}]}
